Results from ChEMBL document CHEMBL1151269, “Caucanolides A-F, unusual antiplasmodial constituents from a colombian collection of the gorgonian coral Pseudopterogorgia bipinnata” (J Nat Prod, 2005).
≈ marks a conversion by molar mass, not a printed value.

Key:
Plasmodium falciparum = assay: Antiplasmodial activity against chloroquine-resistant Plasmodium falciparum W2; type: functional, organism-based
T47D = assay: Cytotoxicity against human T47D cells; type: functional, cell-based
CCRF-CEM = assay: Cytotoxicity against human CCRF-CEM cells; type: functional, cell-based
NCI-H460 = assay: Cytotoxicity against human NCI-H460 cells; type: functional, cell-based
MCF7 = assay: Cytotoxicity against human MCF7 cells; type: functional, cell-based
[1] = system: Mycobacterium tuberculosis; assay: Antibacterial activity against Mycobacterium tuberculosis H37Rv at 6.25 ug/ml; type: functional

SMILES | IC50 (Plasmodium falciparum) | other results
CO[C@@](C)(/C=C1/C=C(C)C(=O)O1)C[C@@H]1C=C(CCC(C=O)=C(C)C)C(=O)O1 [CAUCANOLIDE E] | ≥ 50 µg/mL | –
CO[C@@]1([C@H]2[C@@H](O)C=C(CCC(C=O)=C(C)C)C(=O)OC2(C)C)C=C(C)C(=O)O1 [CAUCANOLIDE C] | ≥ 50 µg/mL | –
C=C(C)[C@H]([C@@H]1C=C(CCC(C(=O)/N=C/N(C)C)=C(C)C)C(=O)O1)[C@@]1(OC)C=C(C)C(=O)O1 [CAUCANOLIDE B] | ≥ 50 µg/mL | –
C=C(C)[C@H]([C@@H]1C=C(CCC(C=O)=C(C)C)C(=O)O1)[C@@]1(OC)C=C(C)C(=O)O1 [CAUCANOLIDE A] | 17 µg/mL (≈ 45.4 µM) | IC50 (T47D): 25.8 µg/mL (≈ 68.9 µM); IC50 (CCRF-CEM): 25.5 µg/mL (≈ 68.1 µM); IC50 (NCI-H460): 12.5 µg/mL (≈ 33.4 µM); IC50 (MCF7): 7.6 µg/mL (≈ 20.3 µM); Activity [1]: 21%
CO[C@]1(/C=C(\C)C[C@@H]2C=C(CCC(C=O)=C(C)C)C(=O)O2)C=C(C)C(=O)O1 [CAUCANOLIDE D] | 15 µg/mL (≈ 40.1 µM) | –
CO[C@](C)(/C=C1/C=C(C)C(=O)O1)C[C@@H]1C=C(CCC(C=O)=C(C)C)C(=O)O1 [CAUCANOLIDE F] | ≥ 50 µg/mL | –
